Article PMC10515640, “Structure-Based Optimization of Covalent, Small-Molecule Stabilizers of the 14-3-3σ/ERα Protein–Protein Interaction from Nonselective Fragments” (Journal of the American Chemical Society, 2023)

Assays:
14-3-3σ = target: T1, 14-3-3σ (Homo sapiens, UniProt P31947); assay: Mass spectrometry dose response, compound binding to 14-3-3σ in the absence of peptide (apo); details: 100 nM compound, 100 nM 14-3-3σ
T1 construct: The 14-3-3 σ isoform (full-length for mass spectrometry and fluorescence anisotropy assays, ΔC for crystallography); made in house; host or cells: E. coli Rosetta 2(DE3)pLysS, pPROEX HTb vector
T1 sequence (P31947 1-248): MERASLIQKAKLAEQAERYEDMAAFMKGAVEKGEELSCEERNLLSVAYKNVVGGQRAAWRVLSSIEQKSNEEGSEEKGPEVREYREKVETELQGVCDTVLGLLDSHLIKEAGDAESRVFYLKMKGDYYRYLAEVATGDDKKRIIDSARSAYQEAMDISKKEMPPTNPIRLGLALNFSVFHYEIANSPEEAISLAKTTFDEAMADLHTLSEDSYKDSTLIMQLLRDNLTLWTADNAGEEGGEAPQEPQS
From the text: (§1) Two orthogonal assays were developed for screening. For the primary assay, mass spectrometry (MS) was used to monitor the formation of the covalent bond between the compound and the native cysteine (Cys38 on 14-3-3σ) (Figure 1D). The assay was first performed in the absence of peptide to determine binding to 14-3-3σ only (apo screening, D1) and then in the presence of both 14-3-3σ and the peptide as an indication of how much the peptide stabilized compound binding (D2). […] As a secondary assay, fluorescence anisotropy (FA) was used. In this case, compounds were titrated to mixtures of 14-3-3σ and FAM-labeled peptides. […] Thus, the two assays are highly complementary; the MS assay reports on compound binding and the FA assay reports on peptide binding. […]
(§2) Mass spectrometry dose response assays were performed on a Waters Acquity UPLC/ Xevo G2-XS Q-Tof mass spectrometer. A Waters UPLC Protein BEH-C4 Column (300 Å, 1.7 μm, 2.1 mm x 50 mm) was used to desalt the samples prior to application on the mass spectrometer. For 19-point MS dose responses, 50 mM compound stocks in DMSO were serially diluted in 3-fold increment in a master plate, then 1000 nl of the compounds were transferred in the assay plates. Master mixes containing 100 nM full-length wild type 14-3-3σ in the absence or presence of […]
(§3) Assay buffer was TRIS (10 mM, pH 8.0) and final volume per well was 50 μl, with final top concentration of compounds dose response series at 1 mM. The reaction mixtures were incubated for 1h at rt before subjected to MS. Four measurements (1h, 8h, 16h, 24h) were performed for time-course experiments. The injection volume for each sample was 6 μl. 24 μl of sample were needed for the time-course experiments, so the total volume in the assay plate was adjusted to 50 μl, to account for the dead volume in the injections. Data collection and automated processing followed a custom workflow, as previously described.1 z Plots were created using GraphPad Prism with the log(agonist) vs. response (variable slope, four parameters) fitting model. […]

14-3-3σ/ERα [1] = target: T2, 14-3-3σ/ERα (Homo sapiens, UniProt P03372+P31947); assay: Fluorescence anisotropy compound titration, FAM-labeled ERα peptide; type: binding; details: 10 nM ERα-FAM labeled peptide, 1 µM 14-3-3σ, overnight incubation (24 h); read-out: EC50 value ERα (FA compound titration)
T2 construct: The 14-3-3 σ isoform (full-length for mass spectrometry and fluorescence anisotropy assays, ΔC for crystallography); made in house; host or cells: E. coli Rosetta 2(DE3)pLysS, pPROEX HTb vector
From the text: as §1
diluted in buffer (10 mM HEPES, pH 7.5, 150 mM NaCl, 0.1% Tween20, 1 mg/mL Bovine Serum Albumin (BSA; Sigma-Aldrich). Final DMSO in the assay was always 1%. Dilution series of 14-3-3 proteins or compounds were made in […]
Compound titrations were made by titrating the compound in a 2-fold dilution series (starting at 500 or 1000 µM) to a mix of fluorescein-labeled peptide (10 nM) and 14-3-3σ (concentration at approximately the EC20 to EC30 value of the protein-peptide complex; 1 µM for ERα and 5 µM for C-RAF). Using the ~EC25 value makes the assay sensitive for measuring an increase in PPI formation. Fluorescence anisotropy measurements were performed directly and after overnight incubation at room temperature. […]
Wells containing only FAM-peptide were used to set as G-factor at 35 mP. Data reported are at endpoint. EC50 and apparent Kd values were obtained from fitting the data with a four-parameter logistic model (4PL) in GraphPad Prism 7 for Windows. Data was obtained and averaged based on either three (compound titrations) or two (protein titrations) independent experiments.

14-3-3σ/ERα [2] = target: T2, 14-3-3σ/ERα; assay: Mass spectrometry dose response, compound binding to 14-3-3σ in the presence of ERα phosphopeptide; details: 100 nM compound, 100 nM 14-3-3σ, ERα-peptide 2 µM
From the text: as §1, §2, §3

14-3-3σ/C-RAF = target: T3, 14-3-3σ/C-RAF (Homo sapiens, UniProt P31947); assay: Mass spectrometry dose response, compound binding to 14-3-3σ in the presence of C-RAF phosphopeptide; details: 100 nM compound, 100 nM 14-3-3σ, C-RAF peptide 18 µM
T3 construct: The 14-3-3 σ isoform (full-length for mass spectrometry and fluorescence anisotropy assays, ΔC for crystallography); made in house; host or cells: E. coli Rosetta 2(DE3)pLysS, pPROEX HTb vector
T3 sequence (P31947 1-248): T1 sequence (P31947 1-248)
From the text: as §1, §2, §3

| Compound | Percentage (%) bound of compound to 14-3-3σ, APO 1h (14-3-3σ) [%] | Percentage (%) bound of compound to 14-3-3σ, APO 8h (14-3-3σ) [%] | Percentage (%) bound of compound to 14-3-3σ, APO 16h (14-3-3σ) [%] | Percentage (%) bound of compound to 14-3-3σ, APO 24h (14-3-3σ) [%] | EC50 (14-3-3σ/ERα [1]) [µM] | Percentage (%) bound of compound to 14-3-3σ, ERα 1h (14-3-3σ/ERα [2]) [%] | Percentage (%) bound of compound to 14-3-3σ, ERα 8h (14-3-3σ/ERα [2]) [%] | Percentage (%) bound of compound to 14-3-3σ, ERα 16h (14-3-3σ/ERα [2]) [%] | Percentage (%) bound of compound to 14-3-3σ, ERα 24h (14-3-3σ/ERα [2]) [%] | Percentage (%) bound of compound to 14-3-3σ, CRAF 1h (14-3-3σ/C-RAF) [%] | Percentage (%) bound of compound to 14-3-3σ, CRAF 8h (14-3-3σ/C-RAF) [%] | Percentage (%) bound of compound to 14-3-3σ, CRAF 24h (14-3-3σ/C-RAF; 24h) [%] | Percentage (%) bound of compound to 14-3-3σ, CRAF 24h (14-3-3σ/C-RAF; head prints 24h) [%] |
| --- | --- | --- | --- | --- | --- | --- | --- | --- | --- | --- | --- | --- | --- |
| C=CS(=O)(=O)NCC1CCN(C(=O)C(C)(C)Oc2ccc(Cl)cc2)CC1 [compound 17] | 0 | 0 | 1.0 | 1.0 | 33 ± 1 | 0.8 | 4.7 | 11.0 | 18.8 | 4.7 | 8.0 | 32.4 | 11.6 |
| O=C(CCl)NCCCC1CCN(C(=O)C2(Nc3ccc(Cl)cc3)CCNCC2)CC1 [compound 153] | 4.7 | 7.4 | 7.8 | 8.0 | 16 ± 1 | 23.1 | 44.7 | 76.1 | 88.8 | 0 | 0 | 0 | 0 |
| O=C(CCl)CCC1CCN(C(=O)C2(Nc3ccc(Cl)cc3)CCOCC2)CC1 [compound 156] | 18.0 | 35.7 | 70.7 | 95.1 | 5 ± 0.3 | 81.1 | 97.0 | 100 | 100 | 54.7 | 62.3 | 99.4 | 92.0 |
| O=C(CCl)NCC1CCN(C(=O)C2(Nc3ccccc3)CCC2)CC1 [compound 98] | 0 | 1.5 | 4.0 | 4.0 | > 150 | 0 | 0 | 0 | 0 | 0 | 0 | 0 | 0 |
| Cl.NC1CCC(Oc2ccccc2)(C(=O)N2CCC(CNC(=O)CCl)CC2)CC1 (stereo not drawn) [compound 139] | 0 | 0 | 2.0 | 2.0 | > 150 | 0 | 0 | 0 | 1.0 | 0 | 0 | 1.0 | 0 |
| O=C(CCl)NCCC1CCN(C(=O)C2(Nc3ccc(Cl)cc3)CCNCC2)CC1 [compound 151] | 0 | 0 | 1.8 | 2.2 | 16 ± 2 | 6.5 | 20.6 | 48.0 | 75.0 | 0 | 1.0 | 3.7 | 1.5 |
| Cl.NC1CCC(Nc2ccccc2)(C(=O)N2CCC(CNC(=O)CCl)CC2)CC1 (stereo not drawn) [compound 141] | 0 | 0 | 0.8 | 25.6 | > 150 | 1.0 | 10.2 | 83.3 | 89.9 | 1.0 | 2.9 | 22.1 | 16.3 |
| CC(C)(Oc1ccc(Cl)cc1)C(=O)N1CCC(CCC(=O)CCl)CC1 [compound 37] | 12.0 | 40.8 | 72.0 | 90.3 | 44 ± 2 | 56.4 | 97.6 | 100 | 100 | 98.8 | 99.9 | 100 | 99.9 |
| Cl.O=C(CCl)NCC1CCN(C(=O)C2(Nc3ccccc3)CCNCC2)CC1 [compound 133] | 0.7 | 1.1 | 1.2 | 10.3 | 115 | 4.5 | 12.9 | 26.7 | 47.0 | 0 | 1.0 | 1.1 | 1.1 |
